From patent publication US9226904B2, “Pharmacological treatment of Parkinson's disease” (The United States of America as Represented by the …, priority 2006, dated 2016)
Each block holds one molecule with its values, some of them ahead of it.

Legend:
[1] = tested on: hemi-lesioned 6-OHDA-treated rat; experiment: Rotational activity (contralateral turns) in hemi-lesioned 6-OHDA-treated rat model of Parkinson's disease; type: in vivo; conditions: for contralateral turning after D1 agonist SKF 38393 (0.1 mg/kg) on test day: 14 days R(+)-8-OHDPAT 0.3 mg/kg or vehicle, then same plus SKF 38393 0.1 mg/kg on test day, observed 3 hr, FIG. 2, p<0.005
Protocol: Rats were rendered parkinsonian on one side of the brain by unilateral destruction of nigrostriatal dopamine neurons using the selective neurotoxin 6-OHDA and stereotaxic procedures. Animals were allowed to recover for at least 2 weeks following this procedure. Animals were then screened for efficacy of the lesion by subcutaneous injection of L-DOPA (25 mg/kg) plus the decarboxylase inhibitor benserazide (6.25 mg/kg) followed by assessment of motor activity.
Anti-parkinsonian action in the hemi-lesioned 6-OHDA-treated rat model was assessed by the elicitation of rotational activity to the side opposite the lesioned hemisphere (contralateral turns) following drug treatment. The number of contralateral turns was assessed by videotape recording of animals and counting the number of turns.
One group (controls) received a daily subcutaneous injection of vehicle (0.9% saline containing 0.1 mg/kg ascorbate; 1 ml/kg) for 14 days and the other group (8-OHDPAT) received a daily subcutaneous injection of R(+)-8-OHDPAT (0.3 mg/kg in 1 ml/kg volume) for 14 days. Beginning on day 15, both groups of rats were tested for motor activity and dyskinetic activity in response to the D1 receptor partial agonist SKF 38393 or the D2 receptor agonist quinpirole. Such testing was carried out in a randomized fashion with different doses of dopamine agonist being tested every 4th day (e.g. 3 days between dopamine agonist administration). Throughout this testing phase the control group continued to receive daily injection of vehicle and the 8-OHDPAT group continued to receive daily injection of 0.3 mg/kg R(+)-8-OHDPAT. On days when dopamine agonists were tested the vehicle or R(+)-8-OHDPAT was administered simultaneously with the dopamine agonist.

[2] = tested on: hemi-lesioned 6-OHDA-treated rat; experiment: Observer assessment of motor dyskinesias (dyskinesia index) during rotational test; type: in vivo; conditions: repeated R(+)-8-OHDPAT administration, 3 hr rotational test
Protocol: Observer assessment of motor dyskinesias was carried out be viewing the videotaped recording of rats during testing for rotational activity. A dyskinesia score was generated at 10 minute intervals throughout the course of the rotational test (generally 3 hr). Dyskinesia scores were based on the following scale: 0-no evidence of abnormal activity; 1 mild, intermittent forelimb dyskinesia; 2-severe, more persistent forelimb dyskinesia associated with animal directing activity toward forelimb; 3-severe limb and axial dyskinesia associated with loss of balance and consistent “barrel-rolling” activity. The dyskinesia scores that were obtained were averaged to generate a dyskinesia index.
The experiments described in this example were conducted as described above. A dyskinesia index for each animal was determined during a 3 hr rotational test.

[3] = tested on: hemi-lesioned 6-OHDA-treated rat; experiment: Rotational activity (contralateral turns) in hemi-lesioned 6-OHDA-treated rat model of Parkinson's disease; type: in vivo; conditions: for rotational response on day 15 of once daily administration: SKF 38393 0.1, 0.3 or 1.0 mg/kg with vehicle or with R(+)-8-OHDPAT 0.3 mg/kg, once daily 15 days, FIG. 10; for direction of turning elicited: daily s.c. dosing, R(+)-8-OHDPAT 0.3 mg/kg
ΔFosB = experiment: Immunoblot of ΔFosB in denervated striatum of unilateral 6-OHDA-lesioned rats; type: in vivo, rat; conditions: once daily for 15 days; L-DOPA 25 mg/kg plus 6.25 mg/kg benserazide; SKF 38393 1 mg/kg; R(+)-8-OHDPAT 0.3 mg/kg concomitant with SKF 38393; FIG. 9; p<0.05
Protocol: To test whether a drug-related rise in ΔFosB contributes to dyskinesias elicited by repeated L-DOPA treatment, ΔFosB levels were assessed by immunoblotting. FIG. 8 provides an image of a typical blot. […] Thus a significant target of the treatments of the present invention is contemplated to be ΔFosB in the striatum. Even so, knowledge of the mechanism(s) is not necessary in order to make and use the present invention.

[4] = coadministration with levodopa; Bibbiani et al., Neurology 2001; cited from earlier work
[5] = L-DOPA 10 mg/kg + 6.25 mg/kg benserazide, FIG. 1

SMILES: COc1ccccc1N1CCN(CCN(C(=O)C2CCCCC2)c2ccccn2)CC1 [WAY 100635]
effect of 5-HT1A antagonist pretreatment on R(+)-8-OHDPAT-facilitated anti-parkinsonian action of SKF 38393 ([1]; WAY 100635 0.1 mg/kg on test day prior to R(+)-8-OHDPAT 0.3 mg/kg plus SKF 38393 0.3 mg/kg, at least 14 days daily R(+)-8-OHDPAT, FIG. 7): blocked the facilitating effects

SMILES: CCCN(CCC)C1CCc2cccc(O)c2C1 (stereo not drawn) [R(+)-8-OHDPAT, 8-hydroxy-2-(di-n-propylamino)tetralin]
anti-parkinsonian action (contralateral turning), chronic and concomitant versus acute administration ([1]; 14 day pretreatment with R(+)-8-OHDPAT 0.3 mg/kg plus concomitant R(+)-8-OHDPAT+SKF 38393 0.3 mg/kg on test day, FIG. 4, p<0.001): significant anti-parkinsonian action greater than all other treatment groups
contralateral turning after D1 agonist SKF 38393 (0.1 mg/kg) on test day [1]: pronounced contralateral turning
contralateral turning after D2 agonist quinpirole (0.05 mg/kg) on test day ([1]; 14 days R(+)-8-OHDPAT 0.3 mg/kg, then R(+)-8-OHDPAT plus quinpirole 0.05 mg/kg on test day, vs vehicle plus quinpirole, 3 hr, FIG. 3, p<0.001): significantly greater contralateral turning
dyskinetic behavior (dyskinesia index) elicited by SKF 38393 (3.0 mg/kg) ([2]; FIG. 5): reduced dyskinetic behavior
dyskinetic behavior (dyskinesia index) elicited by quinpirole (0.05 mg/kg) ([2]; FIG. 6): reduced dyskinetic behavior
rotational response, pre-screened (primed) versus non-pre-screened (unprimed) rats ([3]; 15 days once daily R(+)-8-OHDPAT 0.3 mg/kg plus SKF 38393 0.3 mg/kg, FIG. 11): no significant difference
rotational response on day 15 of once daily administration [3]: significantly greater contralateral turning response
direction of turning elicited [3, 5]: ipsilateral turning could be elicited
ΔFosB in the denervated striatum (ΔFosB): prevents the D1 agonist-induced rise in ΔFosB

SMILES: Oc1cc2c(cc1O)C(c1ccccc1)CNCC2 (stereo not drawn) [SKF 38393]
contralateral turning after D1 agonist SKF 38393 (0.1 mg/kg) on test day [1]: no contralateral turning
rotational response on day 15 of once daily administration [3]: little net contralateral turning
ΔFosB in the denervated striatum (ΔFosB): significant increase

coordination of the turning response (observed, not quantified) ([3]; upon repeated daily administration, L-DOPA 10 mg/kg + benserazide, R(+)-8-OHDPAT 0.3 mg/kg where given): progressively more uncoordinated
SMILES: N[C@@H](Cc1ccc(O)c(O)c1)C(=O)O [L-DOPA, levodopa]
direction of turning elicited [3, 5]: almost exclusively contralateral turning
contralateral turning on Day 15 relative to Day 1 ([3]; repeated daily s.c. dosing, L-DOPA 10 mg/kg + 6.25 mg/kg benserazide, R(+)-8-OHDPAT 0.3 mg/kg where given, FIG. 1): approximately 3 fold
ΔFosB in the denervated striatum (ΔFosB): significant increase

SMILES: Fc1ccc(-c2cncc(CNC[C@H]3CCc4ccccc4O3)c2)cc1 [sarizotan]
motor complications of levodopa treatment [4]: reduced motor complications
